Measured values reported in US9840532B2, “5′-substituted nucleoside compounds” (Eli Lilly and Company, priority 2015, dated 2017).

Legend:
[1] = tested on: GDM-1 cells; test: Combination with BCL2 inhibitor ABT-199 in AML cell lines, 4-day cell proliferation assay; assay type: cell-based; conditions: Homo sapiens, 96 h; GDM-1, treatment duration 4 Days; single agent or combination; read-out: Absolute IC50 (cell proliferation)
Protocol: (§1) On day 1, plate GDM-1 [ATCC®, maintained throughout in GDM-1 assay medium: RPMI-1640 medium/20% heat-inactivated FBS (GIBCO®)] and EOL-1 cells [ATCC®, maintained throughout in EOL-1 assay medium: RPMI-1640 medium/10% heat-inactivated FBS (GIBCO®)] at 4000 and 10000 cells/well (100 μL/well) respectively, in a 96-well assay plate (BD FALCON® 35-3219). Incubate the plates in a 37° C. incubator (5% CO2) for 18-24 hr. On day 2, prepare 2.0% DMSO with assay medium (as indicated above or RPMI-1640/20% heat-inactivated FBS and RPMI-1640/10% FBS for GDM-1 and EOL-1, respectively) and add 100 μL to columns 3-12 in a preparation plate. Prepare test compounds ABT-199 at 10 μM in 2% DMSO and PRMT5 inhibitor Example 1 at 25 μM in 2% DMSO and dispense into wells A2 and B2, respectively, followed by serial dilution (1:3, 10 points) to wells A11 and B11, respectively. For combinational treatment, serially dilute test compound examples at 1:2 in assay medium (as indicated above or RPMI-1640/20% heat-inactivated FBS and RPMI-1640/10% FBS for GDM-1 and EOL-1, respectively) in wells C2-C11 (0.1 μM) to H2-H11, then serially dilute test compound ABT-199 1:3 from C2-H2 (1.0 μM) to C11-H11. […] Incubate plates for 10-15 min at room temperature before reading. Measure luminescence using the PERKIN-ELMER® ENVISION® Multi-Label Reader. […]

[2] = tested on: EOL-1 cells; test: Combination with BCL2 inhibitor ABT-199 in AML cell lines, 7-day cell proliferation assay; assay type: cell-based; conditions: Homo sapiens, EOL1, 168 h; EOL-1, treatment duration 7 Days; single agent or combination; read-out: Absolute IC50 (cell proliferation)
Protocol: as §1

[3] = tested on: A375 (melanoma) cells; test: Xenograft tumor model, melanoma (A375); assay type: in vivo, mouse; conditions: 4-day-on and 3-day-off schedule for 26 days, oral gavage
Protocol: The purpose of this assay is to measure in a mouse model of cancer the reduction in tumor volume in response to test compound administration.
Grow A375 (melanoma) cells in DMEM/High glucose (HYCLONE™ cat. # SH30022) with 10% HI FBS (GIBCO® cat. #10082-147). Grow Will-2 (DLBCL) cells in RPMI 1640 with L-glutamine and 20% heat inactivated FBS. Grow Namalwa (Burkitt's lymphoma) cells (ATCC) in RPMI 1640 media supplemented with L-glutamine, 25 mM HEPES (GIBCO® 22400-089), 1 mM sodium pyruvate and 7.5% FBS. Grow Molt 4 cells in RPMI 1640 with L-glutamine, 25 mM HEPES [GIBCO 22400-089], 1 mM sodium pyruvate, and 10% FBS. Harvest cells and inject subcutaneously onto the rear flank of nude mice (A375: 5×10^6 cells/animal, mixed 1:1 with MATRIGEL®; Will-2; 1×10^7 cells/animal; Namalwa: 2×10^6 cells/animal; Molt 4: : 5×10^6 cells/animal, mixed 1:1 with MATRIGEL®). When tumors are established (approximately 200 mm^3, 7-21 days after implant), randomize animals, and group them into control and test groups. Formulate the test compound in 1% HEC/0.25% TWEEN®-80/0.05% Antifoam. Administer test compound and vehicles by oral gavage. Determine tumor response by tumor volume measurement (caliper) performed twice a week during the course of treatment and report as the percent inhibition of tumor volume versus the vehicle control group.

With `Nc1ncnc2c1ccn2[C@@H]1O[C@H]([C@H](O)c2ccc(Cl)cc2)[C@@H](O)[C@H]1O` [Example 1, (2R,3R,4S,5R)-2-(4-Aminopyrrolo[2,3-d]pyrimidin-7-yl)-5-[(R)-(4-chlorophenyl)-hydroxy-methyl]tetrahydrofuran-3,4-diol] the IC50 [1] was 0.224 µM, the IC50 [2] was 0.006 µM and the “percent inhibition of tumor volume versus vehicle” value ([3]; 10 mg/kg QD) was 64%. For the same compound, the “percent inhibition of tumor volume versus vehicle” value ([3]; 15 mg/kg) was 71%.
